PubChem BioAssay (NCI)
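1) Cells in 96-well plates. 2) Compound, 48 h, 5 concentrations. 3) Linear interpolation between surrounding doses. 4) Unreached endpoint = highest concentration. GI50 is the concentration that inhibits growth by half. TGI denotes the concentration required for complete inhibition of growth.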

How the values were obtained:
Assay in all cases: NCI-60 cell line screen, 48 h
COLO 205 colon = tested on: COLO 205 colon
LOX IMVI melanoma = tested on: LOX IMVI melanoma
NCI-H226 lung = tested on: NCI-H226 lung
MDA-MB-435 = tested on: MDA-MB-435
HCT-15 colon = tested on: HCT-15 colon
PC-3 prostate = tested on: PC-3 prostate
RXF 393 renal = tested on: RXF 393 renal
HOP-62 NSCLC = tested on: HOP-62 NSCLC
HOP-92 NSCLC = tested on: HOP-92 NSCLC
A498 renal = tested on: A498 renal
NCI-H23 lung = tested on: NCI-H23 lung
NCI-H522 lung = tested on: NCI-H522 lung
SK-MEL-2 melanoma = tested on: SK-MEL-2 melanoma
UACC-62 melanoma = tested on: UACC-62 melanoma
NCI-H460 lung = tested on: NCI-H460 lung
HCC-2998 colon = tested on: HCC-2998 colon
SF-268 CNS = tested on: SF-268 CNS
HS 578T breast = tested on: HS 578T breast
MDA-MB-231 breast = tested on: MDA-MB-231 breast
SF-539 CNS = tested on: SF-539 CNS
A549 NSCLC = tested on: A549 NSCLC
K-562 leukemia = tested on: K-562 leukemia
OVCAR-4 ovarian = tested on: OVCAR-4 ovarian
OVCAR-5 ovarian = tested on: OVCAR-5 ovarian
M14 melanoma = tested on: M14 melanoma
HT29 colon = tested on: HT29 colon
SF-295 CNS = tested on: SF-295 CNS
MALME-3M melanoma = tested on: MALME-3M melanoma
SK-MEL-5 melanoma = tested on: SK-MEL-5 melanoma
UO-31 renal = tested on: UO-31 renal
OVCAR-3 ovarian = tested on: OVCAR-3 ovarian
T-47D breast = tested on: T-47D breast
RPMI-8226 leukemia = tested on: RPMI-8226 leukemia
SW-620 colon = tested on: SW-620 colon
SN12C renal = tested on: SN12C renal
EKVX NSCLC = tested on: EKVX NSCLC
HL-60(TB) leukemia = tested on: HL-60(TB) leukemia
UACC-257 melanoma = tested on: UACC-257 melanoma
CCRF-CEM leukemia = tested on: CCRF-CEM leukemia
U251 CNS = tested on: U251 CNS
SK-OV-3 ovarian = tested on: SK-OV-3 ovarian
786-0 renal = tested on: 786-0 renal
CAKI-1 renal = tested on: CAKI-1 renal
SNB-19 CNS = tested on: SNB-19 CNS
MOLT-4 leukemia = tested on: MOLT-4 leukemia
BT-549 breast = tested on: BT-549 breast
SR leukemia = tested on: SR leukemia
ACHN renal = tested on: ACHN renal
SK-MEL-28 melanoma = tested on: SK-MEL-28 melanoma
OVCAR-8 ovarian = tested on: OVCAR-8 ovarian
HCT-116 colon = tested on: HCT-116 colon
TK-10 renal = tested on: TK-10 renal
IGROV1 ovarian = tested on: IGROV1 ovarian
MCF7 breast = tested on: MCF7 breast
DU-145 prostate = tested on: DU-145 prostate
KM12 colon = tested on: KM12 colon
NCI/ADR-RES ovarian = tested on: NCI/ADR-RES ovarian

COc1ccc2[nH]cc(-c3nc(N)nnc3-c3cn(C)c4ccc(Br)cc34)c2c1
GI50 (COLO 205 colon): 3.48 µM | TGI (COLO 205 colon): 12.6 µM | GI50 (LOX IMVI melanoma): 3.89 µM | TGI (LOX IMVI melanoma): 19.9 µM | GI50 (NCI-H226 lung): 4.29 µM | TGI (NCI-H226 lung): 39.8 µM | GI50 (MDA-MB-435): 0.414 µM | TGI (MDA-MB-435): 1.76 µM | GI50 (HCT-15 colon): 2.86 µM | TGI (HCT-15 colon): 22 µM | GI50 (PC-3 prostate): 2.62 µM | TGI (PC-3 prostate): 22.7 µM | GI50 (RXF 393 renal): 1.8 µM | TGI (RXF 393 renal): 4.68 µM | GI50 (HOP-62 NSCLC): 4.52 µM | TGI (HOP-62 NSCLC): 26.2 µM | GI50 (HOP-92 NSCLC): 2.58 µM | TGI (HOP-92 NSCLC): 17.3 µM | GI50 (A498 renal): 2.11 µM | TGI (A498 renal): 6.09 µM | GI50 (NCI-H23 lung): 2.81 µM | TGI (NCI-H23 lung): 13 µM | GI50 (NCI-H522 lung): 2.4 µM | TGI (NCI-H522 lung): 15.4 µM | GI50 (SK-MEL-2 melanoma): 4.02 µM | TGI (SK-MEL-2 melanoma): 20.8 µM | GI50 (UACC-62 melanoma): 1.86 µM | TGI (UACC-62 melanoma): 11.5 µM | GI50 (NCI-H460 lung): 3.03 µM | TGI (NCI-H460 lung): 15.6 µM | GI50 (HCC-2998 colon): 6.26 µM | TGI (HCC-2998 colon): 23.7 µM | GI50 (SF-268 CNS): 5.87 µM | TGI (SF-268 CNS): 36.1 µM | GI50 (HS 578T breast): 2.3 µM | TGI (HS 578T breast): 8.63 µM | GI50 (MDA-MB-231 breast): 4.48 µM | TGI (MDA-MB-231 breast): 28.3 µM | GI50 (SF-539 CNS): 3.11 µM | TGI (SF-539 CNS): 12 µM | GI50 (A549 NSCLC): 5.59 µM | TGI (A549 NSCLC): 90.3 µM | GI50 (K-562 leukemia): 1.07 µM | TGI (K-562 leukemia): > 100 µM | GI50 (OVCAR-4 ovarian): 4.61 µM | TGI (OVCAR-4 ovarian): 84 µM | GI50 (OVCAR-5 ovarian): 4.61 µM | TGI (OVCAR-5 ovarian): 30.6 µM | GI50 (M14 melanoma): 2.66 µM | TGI (M14 melanoma): 12.4 µM | GI50 (HT29 colon): 2.69 µM | TGI (HT29 colon): 12.1 µM | GI50 (SF-295 CNS): 2.8 µM | TGI (SF-295 CNS): 13 µM | GI50 (MALME-3M melanoma): 3.36 µM | TGI (MALME-3M melanoma): 19.8 µM | GI50 (SK-MEL-5 melanoma): 2.58 µM | TGI (SK-MEL-5 melanoma): 8.5 µM | GI50 (UO-31 renal): 2.31 µM | TGI (UO-31 renal): 17.5 µM | GI50 (OVCAR-3 ovarian): 2.9 µM | TGI (OVCAR-3 ovarian): 10.6 µM | GI50 (T-47D breast): 3.31 µM | TGI (T-47D breast): 30.1 µM | GI50 (RPMI-8226 leukemia): 3.51 µM | TGI (RPMI-8226 leukemia): > 100 µM | GI50 (SW-620 colon): 3.85 µM | TGI (SW-620 colon): 22.4 µM | GI50 (SN12C renal): 4.5 µM | TGI (SN12C renal): 22.8 µM | GI50 (EKVX NSCLC): 3.95 µM | TGI (EKVX NSCLC): 30.2 µM | GI50 (HL-60(TB) leukemia): 3.41 µM | TGI (HL-60(TB) leukemia): > 100 µM | GI50 (UACC-257 melanoma): 12.4 µM | TGI (UACC-257 melanoma): 46.2 µM | GI50 (CCRF-CEM leukemia): 3.57 µM | TGI (CCRF-CEM leukemia): > 100 µM | GI50 (U251 CNS): 3.82 µM | TGI (U251 CNS): 26.4 µM | GI50 (SK-OV-3 ovarian): 4.29 µM | TGI (SK-OV-3 ovarian): 32.2 µM | GI50 (786-0 renal): 4.23 µM | TGI (786-0 renal): 25.4 µM | GI50 (CAKI-1 renal): 1.29 µM | TGI (CAKI-1 renal): 19.5 µM | GI50 (SNB-19 CNS): 4.09 µM | TGI (SNB-19 CNS): 20.1 µM | GI50 (MOLT-4 leukemia): 3.73 µM | TGI (MOLT-4 leukemia): > 100 µM | GI50 (BT-549 breast): 4.19 µM | TGI (BT-549 breast): 24.8 µM | GI50 (SR leukemia): 1.19 µM | TGI (SR leukemia): > 100 µM | GI50 (ACHN renal): 4.94 µM | TGI (ACHN renal): 32 µM | GI50 (SK-MEL-28 melanoma): 6.81 µM | TGI (SK-MEL-28 melanoma): 22.2 µM | GI50 (OVCAR-8 ovarian): 4.37 µM | TGI (OVCAR-8 ovarian): > 100 µM | GI50 (HCT-116 colon): 3.7 µM | TGI (HCT-116 colon): 23.7 µM | GI50 (TK-10 renal): 6.45 µM | TGI (TK-10 renal): 60.2 µM | GI50 (IGROV1 ovarian): 2.89 µM | TGI (IGROV1 ovarian): 17.1 µM | GI50 (MCF7 breast): 1.22 µM | TGI (MCF7 breast): 13.5 µM | GI50 (DU-145 prostate): 4.23 µM | TGI (DU-145 prostate): 21.8 µM | GI50 (KM12 colon): 2.86 µM | TGI (KM12 colon): 18.7 µM | GI50 (NCI/ADR-RES ovarian): 4.34 µM | TGI (NCI/ADR-RES ovarian): 50.1 µM
